According to article PMC5218480 (PLoS ONE, 2017):

Test system: MV-4-11 cells
Assay: Gene expression microarray analysis (Affymetrix PrimeView) and GSEA
Format: cell-based, human
Design: RFU PODN (11730768_x_at) / Fold change /veh PODN (11730768_x_at) / RFU LINC00158 (11744669_a_at) / Fold change /veh LINC00158 (11744669_a_at) / RFU DUSP10 (11751237_a_at) / Fold change /veh DUSP10 (11751237_a_at) / RFU ID3 (11757404_x_at) / Fold change /veh ID3 (11757404_x_at) / RFU PLEKHG5 (11737974_s_at) / Fold change /veh PLEKHG5 (11737974_s_at) / RFU LRRC4B (11730491_at) / Fold change /veh LRRC4B (11730491_at) / RFU GIMAP4 (11747438_a_at) / Fold change /veh GIMAP4 (11747438_a_at) / RFU KRT8 (11758183_x_at) / Fold change /veh KRT8 (11758183_x_at) / RFU CNN1 (11734310_a_at) / Fold change /veh CNN1 (11734310_a_at) / RFU VPS37D (11726825_at) / Fold change /veh VPS37D (11726825_at) / RFU C10orf10 (11716522_x_at) / Fold change /veh C10orf10 (11716522_x_at) / RFU KIR2DL2 /// KIR2DL4 /// KIR2DL5A /// KIR2DL5B /// KIR2DS1 /// KIR2DS2 /// KIR2DS3 /// KIR2DS4 /// KIR3DL3 /// KIR3DL3 /// KIR3DS1 (11738374_at) / Fold change /veh KIR2DL2 /// KIR2DL4 /// KIR2DL5A /// KIR2DL5B /// KIR2DS1 /// KIR2DS2 /// KIR2DS3 /// KIR2DS4 /// KIR3DL3 /// KIR3DL3 /// KIR3DS1 (11738374_at) / RFU C1QL1 (11718748_at) / Fold change /veh C1QL1 (11718748_at) / RFU TMPRSS4 (11747572_a_at) / Fold change /veh TMPRSS4 (11747572_a_at) / RFU HAMP (11756126_x_at) / Fold change /veh HAMP (11756126_x_at) / RFU RNFT2 (11725882_a_at) / Fold change /veh RNFT2 (11725882_a_at) / RFU NR4A2 (11747474_a_at) / Fold change /veh NR4A2 (11747474_a_at) / RFU ABCC12 (11746883_a_at) / Fold change /veh ABCC12 (11746883_a_at) / RFU TMEM136 (11760407_x_at) / Fold change /veh TMEM136 (11760407_x_at) / RFU CLDN22 /// WWC2 (11732394_at) / Fold change /veh CLDN22 /// WWC2 (11732394_at) / RFU HLA-DPB1 (11760878_x_at) / Fold change /veh HLA-DPB1 (11760878_x_at) / RFU SPINT1 (11716480_a_at) / Fold change /veh SPINT1 (11716480_a_at) / RFU GAP43 (11754022_s_at) / Fold change /veh GAP43 (11754022_s_at) / RFU A4GNT (11735810_at) / Fold change /veh A4GNT (11735810_at) / RFU PRB3 (11715151_x_at) / Fold change /veh PRB3 (11715151_x_at) / RFU TUBB4B (11761932_at) / Fold change /veh TUBB4B (11761932_at) / RFU CAPN14 (11732068_a_at) / Fold change /veh CAPN14 (11732068_a_at) / RFU TMCC2 (11721928_a_at) / Fold change /veh TMCC2 (11721928_a_at) / RFU IRGQ (11745062_a_at) / Fold change /veh IRGQ (11745062_a_at) / RFU FAM174B (11720279_a_at) / Fold change /veh FAM174B (11720279_a_at) / RFU TMPRSS4 (11748680_a_at) / Fold change /veh TMPRSS4 (11748680_a_at) / RFU FAM212B (11763350_a_at) / Fold change /veh FAM212B (11763350_a_at) / RFU PLEKHG5 (11743358_a_at) / Fold change /veh PLEKHG5 (11743358_a_at) / RFU ZSCAN30 (11745921_a_at) / Fold change /veh ZSCAN30 (11745921_a_at) / RFU CMKLR1 (11741424_a_at) / Fold change /veh CMKLR1 (11741424_a_at) / RFU LOC101060620 /// MAPK8IP1 (11723275_at) / Fold change /veh LOC101060620 /// MAPK8IP1 (11723275_at) / RFU SPTSSB (11747773_x_at) / Fold change /veh SPTSSB (11747773_x_at) / RFU PRSS12 (11739890_at) / Fold change /veh PRSS12 (11739890_at) / RFU BIN1 (11741810_x_at) / Fold change /veh BIN1 (11741810_x_at) / RFU WNT11 (11732464_a_at) / Fold change /veh WNT11 (11732464_a_at) / RFU C10orf10 (11716521_a_at) / Fold change /veh C10orf10 (11716521_a_at) / RFU C5orf56 (11738089_at) / Fold change /veh C5orf56 (11738089_at) / RFU CYB561 (11721691_x_at) / Fold change /veh CYB561 (11721691_x_at) / RFU ANKRD19P (11752326_a_at) / Fold change /veh ANKRD19P (11752326_a_at) / RFU OR2T12 /// OR2T33 /// OR2T8 (11738714_s_at) / Fold change /veh OR2T12 /// OR2T33 /// OR2T8 (11738714_s_at) / RFU VCAN (11748164_a_at) / Fold change /veh VCAN (11748164_a_at) / RFU JSRP1 (11732532_at) / Fold change /veh JSRP1 (11732532_at) / RFU KRTAP10-11 (11738290_x_at) / Fold change /veh KRTAP10-11 (11738290_x_at) / RFU MYO3A (11730013_a_at) / Fold change /veh MYO3A (11730013_a_at) / RFU EBF3 (11725865_a_at) / Fold change /veh EBF3 (11725865_a_at) / RFU CAMK2N1 (11719241_x_at) / Fold change /veh CAMK2N1 (11719241_x_at) / RFU C5orf56 (11738088_a_at) / Fold change /veh C5orf56 (11738088_a_at) / RFU OLFML3 (11715873_a_at) / Fold change /veh OLFML3 (11715873_a_at) / RFU LOC100653217 /// NTM (11731650_a_at) / Fold change /veh LOC100653217 /// NTM (11731650_a_at) / RFU MAPK11 (11762145_a_at) / Fold change /veh MAPK11 (11762145_a_at) / RFU FIZ1 (11724087_x_at) / Fold change /veh FIZ1 (11724087_x_at) / RFU OASL (11726364_x_at) / Fold change /veh OASL (11726364_x_at) / RFU SOX15 (11748057_x_at) / Fold change /veh SOX15 (11748057_x_at) / RFU CD79A (11719716_a_at) / Fold change /veh CD79A (11719716_a_at) / RFU HIST1H1D (11736915_at) / Fold change /veh HIST1H1D (11736915_at) / RFU CASKIN2 (11723855_a_at) / Fold change /veh CASKIN2 (11723855_a_at) / RFU LOC730098 (11760151_x_at) / Fold change /veh LOC730098 (11760151_x_at) / RFU OR4N2 (11742367_at) / Fold change /veh OR4N2 (11742367_at) / RFU PRRT2 (11749266_a_at) / Fold change /veh PRRT2 (11749266_a_at) / RFU SNX32 (11753110_a_at) / Fold change /veh SNX32 (11753110_a_at) / RFU CDHR5 (11726645_a_at) / Fold change /veh CDHR5 (11726645_a_at) / RFU RCAN1 (11760418_a_at) / Fold change /veh RCAN1 (11760418_a_at) / RFU FAM167A (11723789_a_at) / Fold change /veh FAM167A (11723789_a_at) / RFU FAM26E (11764081_at) / Fold change /veh FAM26E (11764081_at) / RFU ISYNA1 (11749810_s_at) / Fold change /veh ISYNA1 (11749810_s_at) / RFU ACY1 (11761880_at) / Fold change /veh ACY1 (11761880_at) / RFU 11764098_at / Fold change /veh 11764098_at / RFU SAMD14 (11745864_x_at) / Fold change /veh SAMD14 (11745864_x_at) / RFU NPB (11741838_a_at) / Fold change /veh NPB (11741838_a_at) / RFU TMPRSS6 (11731388_a_at) / Fold change /veh TMPRSS6 (11731388_a_at) / RFU KRTAP10-2 (11738614_at) / Fold change /veh KRTAP10-2 (11738614_at) / RFU ARHGAP8 /// PRR5-ARHGAP8 (11727945_x_at) / Fold change /veh ARHGAP8 /// PRR5-ARHGAP8 (11727945_x_at) / RFU KRTAP5-7 /// NADSYN1 (11734609_at) / Fold change /veh KRTAP5-7 /// NADSYN1 (11734609_at) / RFU RASL12 (11751679_a_at) / Fold change /veh RASL12 (11751679_a_at) / RFU CDKN2B (11736163_a_at) / Fold change /veh CDKN2B (11736163_a_at) / RFU PRF1 (11729649_at) / Fold change /veh PRF1 (11729649_at) / RFU, ZNF638 /// ZNF638-IT1 / Fold change vs veh, ZNF638 /// ZNF638-IT1 / RFU, PANK3 / Fold change vs veh, PANK3 / RFU, SH3YL1 / Fold change vs veh, SH3YL1 / RFU, ZEB2 / Fold change vs veh, ZEB2 / RFU, NRIP1 / Fold change vs veh, NRIP1 / RFU, PTTG1IP / Fold change vs veh, PTTG1IP / RFU, CAPN2 / Fold change vs veh, CAPN2 / RFU, MED14 / Fold change vs veh, MED14 / RFU, SNORA58 / Fold change vs veh, SNORA58 / RFU, C1orf63 / Fold change vs veh, C1orf63 / RFU, LRRFIP1 / Fold change vs veh, LRRFIP1 / RFU, NDUFAF7 / Fold change vs veh, NDUFAF7 / RFU, SLC12A2 / Fold change vs veh, SLC12A2 / RFU, IBTK / Fold change vs veh, IBTK / RFU, ESF1 / Fold change vs veh, ESF1 / Fold change vs veh, TMEM50B / RFU, TAOK1 / Fold change vs veh, TAOK1 / RFU, ACBD3 / Fold change vs veh, ACBD3 / RFU, TMA16 / Fold change vs veh, TMA16 / RFU, RWDD3 / Fold change vs veh, RWDD3 / RFU, BCAT1 / Fold change vs veh, BCAT1 / RFU, EDEM3 / Fold change vs veh, EDEM3 / RFU, TMEM33 / Fold change vs veh, TMEM33 / RFU, WDR75 / Fold change vs veh, WDR75 / RFU, AHCTF1 / Fold change vs veh, AHCTF1 / RFU, TFRC / Fold change vs veh, TFRC / RFU, ZDHHC17 / Fold change vs veh, ZDHHC17 / RFU, NOM1 / Fold change vs veh, NOM1 / RFU, ARL8B / Fold change vs veh, ARL8B / RFU, ZBTB11 / Fold change vs veh, ZBTB11 / RFU, TAMM41 / Fold change vs veh, TAMM41 / RFU, KIAA1704 /// LOC100996395 / Fold change vs veh, KIAA1704 /// LOC100996395 / RFU, ING1 / Fold change vs veh, ING1 / RFU, TRMT61B / Fold change vs veh, TRMT61B / RFU, FUBP3 / Fold change vs veh, FUBP3 / RFU, TP53 / Fold change vs veh, TP53 / RFU, TNKS2 / Fold change vs veh, TNKS2 / RFU, ZFP14 / Fold change vs veh, ZFP14 / RFU, ACTR2 / Fold change vs veh, ACTR2 / RFU, PPP3R1 / Fold change vs veh, PPP3R1 / RFU, PIK3R1 / Fold change vs veh, PIK3R1 / RFU, HNRNPA1 / Fold change vs veh, HNRNPA1 / RFU, RNF170 / Fold change vs veh, RNF170 / RFU, ZNF28 / Fold change vs veh, ZNF28 / RFU, RNGTT / Fold change vs veh, RNGTT / RFU, OGT / Fold change vs veh, OGT / RFU, BRD1 / Fold change vs veh, BRD1 / RFU, MARS / Fold change vs veh, MARS / RFU, ZNF655 / Fold change vs veh, ZNF655 / RFU, FAHD1 / Fold change vs veh, FAHD1 / RFU, BDP1 / Fold change vs veh, BDP1 / RFU, LRRCC1 / Fold change vs veh, LRRCC1 / RFU, ARID1A / Fold change vs veh, ARID1A / RFU, ZNF146 / Fold change vs veh, ZNF146 / RFU, ZNF330 / Fold change vs veh, ZNF330 / RFU, GPN3 / Fold change vs veh, GPN3 / RFU, C9orf123 / Fold change vs veh, C9orf123 / RFU, N4BP2L2 / Fold change vs veh, N4BP2L2 / RFU, ARFIP1 / Fold change vs veh, ARFIP1 / RFU, FAM179B / Fold change vs veh, FAM179B / RFU, BCL10 / Fold change vs veh, BCL10 / RFU, UHRF1BP1L / Fold change vs veh, UHRF1BP1L / RFU, BET1 / Fold change vs veh, BET1 / RFU, CNOT2 / Fold change vs veh, CNOT2 / RFU, ZNF268 / Fold change vs veh, ZNF268 / Fold change vs veh, ZNF507 / RFU, DGCR2 / Fold change vs veh, DGCR2 / RFU, WDSUB1 / Fold change vs veh, WDSUB1 / Fold change vs veh, HSP90B1 /// MIR3652 / RFU, ADSS / Fold change vs veh, ADSS / RFU, GK / Fold change vs veh, GK / RFU, ZNF148 / Fold change vs veh, ZNF148 / RFU, TAF9 / Fold change vs veh, TAF9 / RFU, SLC1A5 / Fold change vs veh, SLC1A5 / RFU, SLMO2 / Fold change vs veh, SLMO2 / RFU, ABCC4 / Fold change vs veh, ABCC4 / RFU, LOC101060439 /// RAP1B / Fold change vs veh, LOC101060439 /// RAP1B / RFU, RFX7 / Fold change vs veh, RFX7 / RFU, GTPBP10 / Fold change vs veh, GTPBP10 / RFU, CNEP1R1 / Fold change vs veh, CNEP1R1 / RFU, BIVM-ERCC5 /// ERCC5 / Fold change vs veh, BIVM-ERCC5 /// ERCC5 / RFU, ILF3 / Fold change vs veh, ILF3 / RFU 11762660_at / Fold change /veh 11762660_at / RFU VCAN (11757783_s_at) / Fold change /veh VCAN (11757783_s_at) / RFU DDX43 (11728927_at) / Fold change /veh DDX43 (11728927_at) / RFU KRT8 (11758188_x_at) / Fold change /veh KRT8 (11758188_x_at) / RFU NKD1 (11759106_at) / Fold change /veh NKD1 (11759106_at) / RFU SRD5A1 (11742802_a_at) / Fold change /veh SRD5A1 (11742802_a_at) / RFU TPSAB1 /// TPSB2 (11721975_s_at) / Fold change /veh TPSAB1 /// TPSB2 (11721975_s_at) / RFU GSTM3 (11746129_a_at) / Fold change /veh GSTM3 (11746129_a_at) / RFU IL23R (11737362_x_at) / Fold change /veh IL23R (11737362_x_at) / RFU TMEM51 (11727254_a_at) / Fold change /veh TMEM51 (11727254_a_at) / RFU PIWIL2 (11732686_x_at) / Fold change /veh PIWIL2 (11732686_x_at) / RFU ORM1 (11744905_x_at) / Fold change /veh ORM1 (11744905_x_at) / RFU CCDC152 (11743942_at) / Fold change /veh CCDC152 (11743942_at) / RFU ECM1 (11717891_a_at) / Fold change /veh ECM1 (11717891_a_at) / RFU IL23R (11748794_a_at) / Fold change /veh IL23R (11748794_a_at) / RFU TNFAIP8L3 (11732012_x_at) / Fold change /veh TNFAIP8L3 (11732012_x_at) / RFU MBOAT4 (11741988_at) / Fold change /veh MBOAT4 (11741988_at) / RFU 11764193_at / Fold change /veh 11764193_at / RFU TMEM53 (11763286_at) / Fold change /veh TMEM53 (11763286_at) / RFU MAGEB2 (11727129_at) / Fold change /veh MAGEB2 (11727129_at) / RFU TMEM200A (11744735_a_at) / Fold change /veh TMEM200A (11744735_a_at) / RFU CCDC152 (11751479_a_at) / Fold change /veh CCDC152 (11751479_a_at) / RFU FAM211A (11726209_a_at) / Fold change /veh FAM211A (11726209_a_at) / RFU RGS16 (11746705_a_at) / Fold change /veh RGS16 (11746705_a_at) / RFU VCAN (11755009_s_at) / Fold change /veh VCAN (11755009_s_at) / RFU RHOB (11743442_s_at) / Fold change /veh RHOB (11743442_s_at) / RFU RGS16 (11720943_a_at) / Fold change /veh RGS16 (11720943_a_at) / RFU RGS16 (11720944_at) / Fold change /veh RGS16 (11720944_at) / RFU, VPS4B / Fold change vs veh, VPS4B / RFU, CREB1 / Fold change vs veh, CREB1 / RFU, DNAJC13 / Fold change vs veh, DNAJC13 / RFU, GNAQ / Fold change vs veh, GNAQ / RFU, CDK5R1 / Fold change vs veh, CDK5R1 / RFU, ZRANB3 / Fold change vs veh, ZRANB3 / RFU, CUL4A / Fold change vs veh, CUL4A / RFU, CCNY / Fold change vs veh, CCNY / RFU, UFL1 / Fold change vs veh, UFL1 / RFU, COG3 / Fold change vs veh, COG3 / RFU, DIAPH2 / Fold change vs veh, DIAPH2 / RFU, SKA2 / Fold change vs veh, SKA2 / RFU, AFF3 / Fold change vs veh, AFF3 / RFU, LMF1 / Fold change vs veh, LMF1 / RFU, IPO11 / Fold change vs veh, IPO11 / RFU, DFFB / Fold change vs veh, DFFB / RFU, FOXP1 / Fold change vs veh, FOXP1 / RFU, CARD8 / Fold change vs veh, CARD8 / RFU, STRN3 / Fold change vs veh, STRN3 / RFU, ADK / Fold change vs veh, ADK / RFU, RASSF2 / Fold change vs veh, RASSF2 / RFU, WIPF1 / Fold change vs veh, WIPF1 / RFU, LARP1B / Fold change vs veh, LARP1B / RFU, RASA1 / Fold change vs veh, RASA1 / RFU, RB1 / Fold change vs veh, RB1 / RFU, PPFIA1 / Fold change vs veh, PPFIA1 / RFU, MAT2A / Fold change vs veh, MAT2A / RFU, CCT5 / Fold change vs veh, CCT5 / RFU, WDR92 / Fold change vs veh, WDR92 / RFU, CUX1 / Fold change vs veh, CUX1 / RFU, TTC7A / Fold change vs veh, TTC7A / RFU, TMEM135 / Fold change vs veh, TMEM135 / RFU, DEPTOR / Fold change vs veh, DEPTOR / RFU, CPM / Fold change vs veh, CPM / RFU, DNAJB6 / Fold change vs veh, DNAJB6 / RFU, CACNA2D3 / Fold change vs veh, CACNA2D3 / RFU, DTX4 / Fold change vs veh, DTX4 / RFU, TFCP2 / Fold change vs veh, TFCP2 / RFU, GMCL1 /// GMCL1P1 / Fold change vs veh, GMCL1 /// GMCL1P1 / RFU, AEBP2 / Fold change vs veh, AEBP2 / RFU, SNHG1 /// SNORD22 /// SNORD25 /// SNORD26 /// SNORD27 /// SNORD28 /// SNORD29 /// SNORD31 / Fold change vs veh, SNHG1 /// SNORD22 /// SNORD25 /// SNORD26 /// SNORD27 /// SNORD28 /// SNORD29 /// SNORD31 / Fold change (Aza/veh), C12orf56 (ProbeSet 11735607_a_at) / Fold change (ACY-1035/veh), C12orf56 (ProbeSet 11735607_a_at) / Fold change (Aza/veh), FGFR1OP (ProbeSet 11751329_s_at) / Fold change (ACY-1035/veh), FGFR1OP (ProbeSet 11751329_s_at) / Fold change (Aza/veh), VPS36 (ProbeSet 11739960_a_at) / Fold change (ACY-1035/veh), VPS36 (ProbeSet 11739960_a_at) / RFU SYPL1 (11715823_x_at) / Fold change /veh SYPL1 (11715823_x_at) / RFU IGFBP7 (11715501_s_at) / Fold change /veh IGFBP7 (11715501_s_at) / RFU REEP3 (11722064_at) / Fold change /veh REEP3 (11722064_at) / RFU IGLL1 (11728026_x_at) / Fold change /veh IGLL1 (11728026_x_at): dose or concentration left out as unconfirmed
Conditions: MV-4-11 cells, 48 hours

Structure (SMILES): Nc1ncn([C@@H]2O[C@H](CO)[C@@H](O)[C@H]2O)c(=O)n1 [azacitidine]
- Fold change /veh PRSS12 (11739890_at): 0.94
